The values that follow come from patent US12410179B2, “Modulators of TNF alpha activity and uses thereof” (RayThera, Inc., priority 2023, dated 2025).

In data set [1] the target is T1, TNFα (Homo sapiens, UniProt P01375). The data set can be described thus: HEK-Blue hTNFα reporter assay. Details: purchased R&D biosystem (R&D Systems) 210-TA-020/CF. In kind it is cell-based. The conditions noted are these: HEK-Blue hTNFα reporter cells; for Emax: read-out: TNFα reporter, Emax. An outline of the steps: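 Compounds preincubated 1 h at 37 °C with recombinant hTNFα ([…]), then added to HEK293 NF-κB-SEAP reporter cells, 10000 cells/well, 24 h at 37 °C. SEAP read by QUANTI-Blue at OD620; % inhibition versus stimulated and unstimulated controls, IC50 by 4-parameter fit.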
A general note: A reporter such as luciferase makes a cellular process visible.

For data set [2], the target named is T1, TNFα. The data set can be described thus: Human dermal fibroblast cell potency assay (IL-8 HTRF). In kind it is cell-based. Also noted: purchased R&D biosystem (R&D Systems) 210-TA-020/CF. Particulars: human dermal fibroblasts, hTNFα 10 ng/mL, 24 h; for Emax: read-out: HDF_IL-8, Emax; for IC50: read-out: HDF_IL-8, IC50. As for the experimental part:
The potency of compounds was examined in Human dermal fibroblast cells (HDF). […] When used for assay, 40 μL of HDF suspension (2000 cell/well) was seeded into each well of 384-well plates (Corning 3764). After overnight culture, replenish fresh culture medium with 5% fetal bovine serum. A serial dilution of work solution of tested compound was made in DMSO with 1000× of final concentration, and 50 nL of compound DMSO solution was transferred into another set of 384-well plates by Echo, and incubated with 10 μL of recombinant hTNFα (R&D biosystem, Cat #210-TA-020/CF) for 1 h at 37° C. The compound/hTNFα mixture was then transferred to the 384-plate containing HDF, and then incubated at 37° C. with 5% CO2 for 24 h. The final concentration of hTNFα is 10 ng/mL.
After incubation, 16 μL of induced cell supernatant was transferred to a new 384-well Optiplate well to mix with 4 μL of IL-8 antibody cocktail (Revvity #62HIL08PEH). After overnight incubation, the plate was read using EnSight™ Multimode Microplate Reader (Perkin Elmer) for HTRF signal.
The percentage of inhibition was calculated by the following formula: % inhibition=(positive control−Sample)/(positive control−negative control)*100
Positive control: HTRF reading of cells with hTNFα stimulation.
Negative control: HTRF reading of cells without hTNFα stimulation.
Sample: HTRF reading of cells with compound at specific concentration and hTNFα stimulation
The % inhibition was plotted against compound concentration in logarithmic scale and the IC50 was rendered using 4-parameter nonlinear regression (GraphPad Prism).
Background: Time-resolved FRET reads energy transfer from a long-lived donor to a nearby acceptor.

The target in data set [3] is T1, TNFα. Description: TNFα human whole blood screening assay (CD11b on granulocytes, zymosan challenge). In kind it is cell-based. Details: a human whole blood assay driven by endogenously expressed TNFα; from tissue; host or cells: human whole blood. Particulars: human whole blood IC50 multiplied by unbound fraction from plasma protein binding; read-out: CD11b in hWB, free IC50. The method, then: The compounds according to the Examples were assessed in a human whole blood assay driven by endogenously expressed TNFα by measuring the expression of CD11b on granulocytes in human whole blood challenged with zymosan. A serial diluted compound was pre-incubated with human whole blood for 1 h at 37° C./5% CO2. Zymosan (Invivogen, Tlrl-zyn) was added (final assay concentration […] in a total volume of 100 μl) with thorough mixing and incubated for 3 h at 37° C./5% CO2. The samples were then incubated with 10 μl antibody cocktail containing APC-conjugated anti-human CD45 antibody (Biolegend, cat #304012) and PE-conjugated anti-human CD11b antibody (Biolegend, cat #101208) for 30 min at 4° C. The blood was fixed/lysed for 10-15 min at 37° C. using FACS/lysing solution (BD sciences, cat #558049) and analyzed with CytoFlex S (Beckman Coulter). The number of single cells (SSC-A, SSC—W) positive for CD45 and expressing CD11b was determined using FlowJo software (BD Biosciences). Inhibition of CD11b activation was calculated against DMSO control. […]
A calculated IC50 for the free compound (free IC50) that considers the extent of fraction unbound in blood was determined by multiplying the IC50 generated from the human whole blood screening assay by the unbound fraction, generated from the plasma protein binding assay.

Data set [4] has as its system human induced pluripotent stem cell-derived cardiomyocytes (hiPSC-CMs). Particulars: 10 μM.
Description: The MEA study was designed to assess the in vitro inhibitory effect of compounds on extracellular field potential (EFP) of human induced pluripotent stem cell-derived cardiomyocytes (hiPSC-CMs) using the Maestro Pro multielectrode arrays system. The concentration response relationship was determined for each compound at 10 μM and 3 μM in duplicate to calculate the % change in EFP parameters.
hiPSC-CMs (Help Stem Cell Innovations Co.) were seeded in fibronectin-coated CytoView MEA 96-White plate at 20000 cells/well. The next day 2/3 of the plating medium volume was removed and replaced by maintenance media. Half of the maintenance medium was removed and replaced every 2 days. On day 6, compounds were made 2× final concentration (20 μM and 6 μM) in maintenance media. Half of the medium was removed from the wells and an equal volume of the appropriate treatment mix was added, and the EFP signal was recorded. […] Data that meet the above criteria for EFP recording quality were further analyzed as described in the following steps: […]
Axis Navigator 2.0.4. software was used to extract the peak current from the original data. The percentage of amplitude change from baseline was calculated using the following equation.
Two important readouts in MEA assay are used to evaluate risk of QT prolongation. […]

T1 sequence (P01375 77-233 limits assumed): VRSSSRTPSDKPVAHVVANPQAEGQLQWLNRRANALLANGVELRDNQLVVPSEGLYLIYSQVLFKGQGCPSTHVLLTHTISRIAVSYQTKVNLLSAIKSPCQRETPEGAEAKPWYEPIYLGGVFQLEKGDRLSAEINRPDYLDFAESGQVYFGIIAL

Take `CN1C(=O)c2cccc(OC(F)F)c2[C@H]2C[C@@H]1c1nn3ccc(-c4cnc(C5(N)CCC5)nc4)cc3c12` [Example 15]: the concentration for half-maximal inhibition (IC50) (as a rule, the concentration at which inhibition is half-maximal) on TNFα [1] (SEAP readout, read-out: IC50 Range) is less than 25 nM; on TNFα [1] (read-out: TNFα reporter, IC50) it was 4.1 nM; on TNFα [2] it was 2.8 nM; on TNFα [3] it was 2.1 nM. The results for the maximal response (Emax) on TNFα [1] and at TNFα [2] were 95% and 97%, respectively.

`CN1C(=O)c2cccc(OC(F)F)c2[C@H]2C[C@@H]1c1nc3ccc(-c4cnc(C5(N)CCC5)nc4)cc3n12` [Comp. Ex #1, reference compound]: in data set [4], the “Cardiomyocytes FPDc prolong.” value is reported as more than 20%. In addition, in data set [4], the “EAD (early afterdepolarization)” value is given as “EAD”. For the same molecule, the Emax (commonly the greatest response seen or fitted, relative to the assay's reference) came to 96% at TNFα [1] and 93% at TNFα [2]. Further, the half-maximal inhibitory concentration (IC50) turned out to be 4.8 nM on TNFα [1] (read-out: TNFα reporter, IC50); 6.7 nM at TNFα [2]; 9.3 nM on TNFα [3].
